PMC9246205, “Olmesartan medoxomil self-microemulsifying drug delivery system reverses apoptosis and improves cell adhesion in trinitrobenzene sulfonic acid-induced colitis in rats” (Drug Delivery, 2022)

Tests used:
Type in all cases: in vivo, rat
[1] = test system: trinitrobenzene sulfonic acid-induced acute colitis; experiment: Disease activity score in TNBS-induced acute colitis; settings: TNBS-colitic rats, 7 days, mean ± SEM, n = 8
Method: (§1) The rats were food-deprived for a day, and colitis was induced as previously described (Wang et al., [2010]). Rats were anesthetized with ether and then a 5% TNBS (Sigma, St Louis, USA) (100 mg/kg) dissolved in 0.25 mL of 50% ethanol (v/v) (2:1) was administered by a polyethylene catheter introduced rectally to 6–8 cm from the anus. Rats were set in a head-down position for 30 seconds to avoid leakage of the solution (Lu et al., [2017]). Rats were randomly divided into seven groups (n = 8) including the normal control (NC) group, TNBS-colitic (positive control, PC) group, and five TNBS-colitic-treated groups which were orally given sulfasalazine (SSZ, 100 mg/kg/day, a reference treatment for IBD) (Yousefi-Ahmadipour et al., [2020]), low and high doses of OM (OML and OMH: 3.0 and 10.0 mg/kg/day (Nagib et al., [2013])) as a raw drug and as an OMS (OMSL and OMSH). OM was suspended in distilled water containing 0.25% carboxymethyl cellulose (Gorain et al., [2014]; Komesli et al., [2019]). The treatments were given for 7 days starting 4 hours after TNBS administration (Lu et al., [2017]). Rats were evaluated for the colitis activity score. At end of the treatment period, blood was collected, and rats were sacrificed. The colon was excised, cleaned with ice-cold saline, measured for weight and length, and the macroscopic appearance was evaluated. Parts of the colon were homogenized and activities/levels of myeloperoxidase (MPO), tumor necrosis factor-α (TNF-α), interleukin-6 (IL-6), malondialdehyde (MDA), and reduced glutathione (GSH) were measured. The concentrations of olmesartan in plasma and colonic homogenate were measured by high performance liquid chromatography/mass spectrometry (HPLC/MS). Samples of the colon were obtained for hematoxylin and eosin (H&E) and immunohistochemical staining (Joo et al., [2015])). […]
The colitis activity index was measured to evaluate the activity of intestinal inflammation. The scores for weight loss, stool consistency, and fecal blood were calculated to give a disease activity score (DAS) as previously described (Wang et al., [2014]). […]

interleukin-6 (IL-6) = experiment: Colonic IL-6 (ELISA, colon homogenate); settings: TNBS-colitic rats, 7 days, mean ± SEM, n = 8
Method: as §1, with “At end of the treatment period, blood was collected, and rats were sacrificed.” left out, “(HPLC/MS).” for “(HPLC/MS). Samples of the colon were obtained for hematoxylin and eosin (H&E) and immunohistochemical staining (Joo et al., [2015])).”
(§2) The colonic samples were homogenized using phosphate-buffered saline and a TissueLyser II (Qiagen) at 4 °C to yield a 10% homogenate. […] The colonic protein content was determined by using the Bradford method (Bradford, 1976). The activities and/or levels of MPO (a marker for neutrophil infiltration), TNF-α, IL-6, MDA, and GSH were measured using ELISA kits (MyBioSource, Inc. CA, USA) according to the manufacturer's guidelines and were expressed/mg protein.

E-cadherin = experiment: Colonic E-cadherin immunostaining; settings: TNBS-colitic rats, 7 days
Method: as §1, with “(HPLC/MS).” for “(HPLC/MS). Samples of the colon were obtained for hematoxylin and eosin (H&E) and immunohistochemical staining (Joo et al., [2015])).”
(§3) Colonic sections were immunohistochemically stained for E-cadherin and Caspase-3 (ab13847; Abcam; 1:500 dilution). […] For MMP-9 immunostaining, the sections were probed with rabbit and mouse monoclonal anti-MMP-9 (1:150 dilution), detected with sheep anti-rabbit or anti-mouse IgG fluorescein isothiocyanate (1:500 dilution), and examined under a fluorescent microscope (Baugh et al., [1999]).

[2] = test system: trinitrobenzene sulfonic acid-induced acute colitis; experiment: Colonic macroscopic examination and colon weight/length ratio in TNBS-induced acute colitis; settings: TNBS-colitic rats, 7 days; for Colon weight/length ratio: mean ± SEM, n = 8
Method: (§4) The rats were food-deprived for a day, and colitis was induced as previously described (Wang et al., [2010]). Rats were anesthetized with ether and then a 5% TNBS (Sigma, St Louis, USA) (100 mg/kg) dissolved in 0.25 mL of 50% ethanol (v/v) (2:1) was administered by a polyethylene catheter introduced rectally to 6–8 cm from the anus. Rats were set in a head-down position for 30 seconds to avoid leakage of the solution (Lu et al., [2017]). Rats were randomly divided into seven groups (n = 8) including the normal control (NC) group, TNBS-colitic (positive control, PC) group, and five TNBS-colitic-treated groups which were orally given sulfasalazine (SSZ, 100 mg/kg/day, a reference treatment for IBD) (Yousefi-Ahmadipour et al., [2020]), low and high doses of OM (OML and OMH: 3.0 and 10.0 mg/kg/day (Nagib et al., [2013])) as a raw drug and as an OMS (OMSL and OMSH). OM was suspended in distilled water containing 0.25% carboxymethyl cellulose (Gorain et al., [2014]; Komesli et al., [2019]). The treatments were given for 7 days starting 4 hours after TNBS administration (Lu et al., [2017]). Rats were evaluated for the colitis activity score. At end of the treatment period, blood was collected, and rats were sacrificed. The colon was excised, cleaned with ice-cold saline, measured for weight and length, and the macroscopic appearance was evaluated. Parts of the colon were homogenized and activities/levels of myeloperoxidase (MPO), tumor necrosis factor-α (TNF-α), interleukin-6 (IL-6), malondialdehyde (MDA), and reduced glutathione (GSH) were measured. The concentrations of olmesartan in plasma and colonic homogenate were measured by high performance liquid chromatography/mass spectrometry (HPLC/MS). Samples of the colon were obtained for hematoxylin and eosin (H&E) and immunohistochemical staining (Joo et al., [2015])). All evaluations were made by blinded observers.
The colon was measured for weight and length. The degree of colonic damage regarding edema, ulceration, bleeding, and necrosis was expressed as mild, moderate, or severe (Ghia et al., [2006]).

[3] = test system: matrix metalloproteinase-9 (MMP-9); experiment: Colonic MMP-9 immunostaining; settings: TNBS-colitic rats, 7 days
Method: as §1, with “(HPLC/MS).” for “(HPLC/MS). Samples of the colon were obtained for hematoxylin and eosin (H&E) and immunohistochemical staining (Joo et al., [2015])).”
as §3

caspase-3 = experiment: Colonic caspase-3 immunostaining; settings: TNBS-colitic rats, 7 days
Method: as §1, with “(HPLC/MS).” for “(HPLC/MS). Samples of the colon were obtained for hematoxylin and eosin (H&E) and immunohistochemical staining (Joo et al., [2015])).”
as §3

[4] = test system: tumor necrosis factor-α (TNF-α); experiment: Colonic TNF-α (ELISA, colon homogenate); settings: TNBS-colitic rats, 7 days, mean ± SEM, n = 8
Method: as §1, with “At end of the treatment period, blood was collected, and rats were sacrificed.” left out, “(HPLC/MS).” for “(HPLC/MS). Samples of the colon were obtained for hematoxylin and eosin (H&E) and immunohistochemical staining (Joo et al., [2015])).”
as §2

[5] = test system: reduced glutathione (GSH); experiment: Colonic GSH (ELISA, colon homogenate); settings: TNBS-colitic rats, 7 days, mean ± SEM, n = 8
Method: as §1, with “At end of the treatment period, blood was collected, and rats were sacrificed.” left out, “(HPLC/MS).” for “(HPLC/MS). Samples of the colon were obtained for hematoxylin and eosin (H&E) and immunohistochemical staining (Joo et al., [2015])).”
as §2

[6] = test system: E-cadherin, Bax, Bcl-2, cleaved caspase-3; experiment: Western blot of colonic E-cadherin, Bax, Bcl-2 and cleaved caspase-3; settings: TNBS-colitic rats, 7 days
Method: as §4, with “observers. […]” for “observers.”

myeloperoxidase (MPO) = experiment: Colonic MPO activity (ELISA, colon homogenate); settings: TNBS-colitic rats, 7 days, mean ± SEM, n = 8
Method: as §1, with “At end of the treatment period, blood was collected, and rats were sacrificed.” left out, “(HPLC/MS).” for “(HPLC/MS). Samples of the colon were obtained for hematoxylin and eosin (H&E) and immunohistochemical staining (Joo et al., [2015])).”
as §2

[7] = test system: trinitrobenzene sulfonic acid-induced acute colitis; experiment: Colonic histopathological examination (H&E); settings: TNBS-colitic rats, 7 days
Method: as §1
The colonic parts were fixed in 10% buffered formalin and embedded in paraffin. Sections (3–5 µm) were prepared and stained with H&E. The degree of inflammation was expressed as mild, moderate, or severe (Wirtz et al., [2007]).

malondialdehyde (MDA) = experiment: Colonic MDA (ELISA, colon homogenate); settings: TNBS-colitic rats, 7 days, mean ± SEM, n = 8
Method: The rats were food-deprived for a day, and colitis was induced as previously described (Wang et al., [2010]). Rats were anesthetized with ether and then a 5% TNBS (Sigma, St Louis, USA) (100 mg/kg) dissolved in 0.25 mL of 50% ethanol (v/v) (2:1) was administered by a polyethylene catheter introduced rectally to 6–8 cm from the anus. Rats were set in a head-down position for 30 seconds to avoid leakage of the solution (Lu et al., [2017]). […] Rats were evaluated for the colitis activity score. […] The colon was excised, cleaned with ice-cold saline, measured for weight and length, and the macroscopic appearance was evaluated. Parts of the colon were homogenized and activities/levels of myeloperoxidase (MPO), tumor necrosis factor-α (TNF-α), interleukin-6 (IL-6), malondialdehyde (MDA), and reduced glutathione (GSH) were measured. The concentrations of olmesartan in plasma and colonic homogenate were measured by high performance liquid chromatography/mass spectrometry (HPLC/MS). […]
The colonic samples were homogenized using phosphate-buffered saline and a TissueLyser II (Qiagen) at 4 °C to yield a 10% homogenate. […] The colonic protein content was determined by using the Bradford method (Bradford, 1976). […]

[8] = high dose 10.0 mg/kg/day orally

For `O=C(O)c1cc(/N=N/c2ccc(S(=O)(=O)Nc3ccccn3)cc2)ccc1O` [SSZ, sulfasalazine], the Disease activity score ([1]; 100 mg/kg/day orally) was 0.45 ± 0.06 $, the IL-6 (interleukin-6 (IL-6); 100 mg/kg/day orally) was 65.06 ± 1.46 $ pg/mg protein and the “colonic E-cadherin expression (immunostaining)” value (“colonic E-cadherin expression” for short) (E-cadherin; 100 mg/kg/day orally) was “greatly upregulated and nearly normalized”. For the same compound, the “colonic macroscopic appearance (damage)” value ([2]; 100 mg/kg/day orally) was “greatly improved”, the Colon weight/length ratio ([2]; 100 mg/kg/day orally) was 78.23 ± 2.11 $ mg/cm and the “colonic MMP-9 overexpression (immunostaining)” value (“colonic MMP-9 overexpression” below) ([3]; 100 mg/kg/day orally) was “marked improvement”. The “colonic caspase-3 expression (immunostaining)” value (from here on “colonic caspase-3 expression”) (caspase-3; 100 mg/kg/day orally) was “greatly decreased and nearly normalized”, the TNF-α ([4]; 100 mg/kg/day orally) was 20.49 ± 0.73 $ pg/mg protein and the GSH ([5]; 100 mg/kg/day orally) was 39.75 ± 1.38 $ nmol/mg protein. The “protein expression of colonic E-cadherin, Bax, Bcl-2, cleaved caspase-3 and Bcl-2/Bax ratio (Western blot)” value ([6]; 100 mg/kg/day orally) was “marked improvement”, the MPO activity (myeloperoxidase (MPO); 100 mg/kg/day orally) was 8.01 ± 0.30 $, @ U/mg protein and the “colonic histopathological damage (H&E)” value ([7]; 100 mg/kg/day orally) was “nearly normalized the colonic damage”.
In the case of `CCCc1nc(C(C)(C)O)c(C(=O)OCc2oc(=O)oc2C)n1Cc1ccc(-c2ccccc2-c2nnn[nH]2)cc1` [OM, Olmesartan medoxomil], the Disease activity score [1, 8] is reported as 3.01 ± 0.25 #, the Disease activity score ([1]; low dose 3.0 mg/kg/day orally) is reported as 5.69 ± 0.26 ^ and the IL-6 (interleukin-6 (IL-6); [8]) is reported as 122.43 ± 4.29 # pg/mg protein. The IL-6 (interleukin-6 (IL-6); low dose 3.0 mg/kg/day orally) was 160.57 ± 5.73 ^ pg/mg protein, the “colonic E-cadherin expression” value (E-cadherin; [8]) was “moderate improvement” and the “colonic E-cadherin expression” value (E-cadherin; low dose 3.0 mg/kg/day orally) was “mild improvement”. The “colonic macroscopic appearance (damage)” value [2, 8] was “moderate improvement”, the Colon weight/length ratio [2, 8] was 121.50 ± 6.91 # mg/cm and the “colonic macroscopic appearance (damage)” value ([2]; low dose 3.0 mg/kg/day orally) was “mild improvement”. The Colon weight/length ratio ([2]; low dose 3.0 mg/kg/day orally) was 176.63 ± 3.49 ^ mg/cm, the “colonic MMP-9 overexpression” value [3, 8] was “moderate improvement” and the “colonic MMP-9 overexpression” value ([3]; low dose 3.0 mg/kg/day orally) was “mild improvement”. The “colonic caspase-3 expression” value (caspase-3; [8]) was “moderate improvement”, the “colonic caspase-3 expression” value (caspase-3; low dose 3.0 mg/kg/day orally) was “mild improvement” and the TNF-α [4, 8] was 51.45 ± 2.47 # pg/mg protein. For the same compound, the TNF-α ([4]; low dose 3.0 mg/kg/day orally) was 69.98 ± 3.50 ^ pg/mg protein, the GSH [5, 8] was 29.03 ± 1.44 # nmol/mg protein and the GSH ([5]; low dose 3.0 mg/kg/day orally) was 19.77 ± 0.55 ^ nmol/mg protein. The “protein expression of colonic E-cadherin, Bax, Bcl-2, cleaved caspase-3 and Bcl-2/Bax ratio (Western blot)” value [6, 8] was “moderate improvements”, the “protein expression of colonic E-cadherin, Bax, Bcl-2, cleaved caspase-3 and Bcl-2/Bax ratio (Western blot)” value ([6]; low dose 3.0 mg/kg/day orally) was “mild improvement” and the MPO activity (myeloperoxidase (MPO); [8]) was 14.52 ± 0.61 # U/mg protein. For the same compound, the MPO activity (myeloperoxidase (MPO); low dose 3.0 mg/kg/day orally) was 20.90 ± 1.06 ^ U/mg protein, the “colonic histopathological damage (H&E)” value [7, 8] was “moderate improvement” and the “colonic histopathological damage (H&E)” value ([7]; low dose 3.0 mg/kg/day orally) was “mild improvement”. The MDA (malondialdehyde (MDA); [8]) was 149.57 ± 2.26 # nmol/mg protein and the MDA (malondialdehyde (MDA); low dose 3.0 mg/kg/day orally) was 221.25 ± 6.23 ^ nmol/mg protein.
